Assay results reported in US20090076092A1, “METHOD FOR DISRUPTING REPRODUCTIVE PERFORMANCE OF ARTHROPODS” (priority 2006, published 2009).

Assays:
[1] = test system: cotton bollworm (Helicoverpa armigera Hübner); assay: Test H: eggs laid and hatched by treated cotton bollworm adults; type: in vivo; conditions: for No. of eggs hatched / No. of eggs laid: total; for No. of eggs hatched: counted daily for 10 DAT; for No. of eggs laid: counted daily for about 10 days
Source text: For evaluating the reproductive performance effects on cotton bollworm (Helicoverpa armigera Hübner), each test unit consisted of one pair of adult (female and male) Helicoverpa armigera moths. To obtain the adult moths, male and female pupae of approximately the same age (±1 day) were placed in separate containers until adults emerged. After emergence, adult moths of about the same age (±1 day) were selected for testing. Ten adult moths of the same sex were placed in a cage containing a potted cotton plant in a […] container covered with sleeve of fine-mesh polyester material. Then the cages were sprayed over the top with designated treatments of the test compounds using a CO2 sprayer fitted with a flat fan nozzle, calibrated to deliver about 200 mL (500 L/ha) of spray at a spray pressure of 207 kPa. The spray nozzle was placed 60 cm above the top of the cages.
(§1) Sub-lethal rates of Compound 1 on cotton bollworm were estimated based on a preliminary dose-response curve using rates of 10, 25, 50, 80 and 100 ppm. […] Three treatments consisted of test solutions containing Compound 1 at 10, 20 and 30 ppm as well as a control sprayed with water without test compound.
The treated adult moths were transferred individually into a clean container made of a clear plastic cup covered with cloth and supplied with a cotton wick soaked in 10% sucrose solution as adult diet source. Each treatment used 10 adult females and 10 adult males (i.e. 10 replicates per treatment). One day after treatment, a pair of treated adults (male and female) were placed together in a cage made of a 300 mL clear plastic cup with screened cloth cover and containing a source of adult diet, allowing the moths to copulate. Each pair of moths was transferred to a new cup daily. The number of eggs laid was counted daily for about 10 days (which is the period during which female moths typically produce viable eggs) and totaled. To evaluate the viability of eggs, the copulation cages containing eggs were stored in a growth chamber at 24-27° C. with 14 hours of light per day and 70% relative humidity.

diamondback moth = assay: Previous laboratory studies of diamondback moth mortality; type: in vivo; conditions: Plutella xylostella, read-out: mortality of the diamondback moth (LC20)
Source text: (§2) The sub-lethal concentrations or doses used in the various tests for the specific pest species and populations tested in the context of the present invention were estimated from multiple-rate, dose-finding tests to determine the control rates and activity break rates. […] Therefore, depending on the target pest species, either the LC50 or a suitable concentration between LC50 and LC20 was selected as the sub-lethal dose. The specific procedures used to select the respective doses are described in each Test.
(§3) In addition, a control without test compound was included.

[2] = test system: diamondback moth (Plutella xylostella); assay: Test G: number of eggs (fecundity) of adult diamondback moth; type: in vivo; conditions: 10 ppm, control itself gave very few eggs
Source text: For evaluating the reproductive performance effects on diamondback moth (Plutella xylostella), a minimum of 120 larvae of diamondback moth of each sex were used. Male and female individuals of late instar larvae were separated and caged in individual containers containing Chinese kale. Male diamondback moths were identified by a white dot on the abdomen at the late instar larval stage. When pupae emerged, each pupa was caged separately until it emerged as adult.
as §3
Groups of 40 newly emerged (<24 hours) moths of the same sex were placed inside a meshed cage. The caged adult moths were then sprayed with the test solution, using a CO2 backpack sprayer at 500 L/Ha. For the control treatment, the adults were sprayed with water at a similar spray volume. The groups of treated individuals were then transferred into a clean container with a source of adult diet (i.e. a cotton wick soaked in 10% sucrose solution). Separate containers were used for different groups of treated insects. One day after treatment, the numbers of live, moribund and dead adults were counted. One live treated male and one live treated female were placed together in a copulation cage, which was a 300 mL clear plastic cup covered with nylon screen supplied with an adult diet source of 10% sucrose solution.
Each pair of virgin adults was a replicate, and each treatment consisted of 10 to 20 replicates. Every day each pair of moths was moved to a new cup supplied with a diet of 10% sucrose solution.
The number of eggs laid per female moth was counted daily during the two days when the female moths actively produced viable eggs. The results, listed in Table G, indicate that no meaningful comparative information can be inferred, as the even the Control provided very few eggs per female moth; this indicates a systemic reproduction problem from unknown causes. However, had the Control worked, we expect to see the reproductive performance effects on diamondback moth.

beet armyworm = assay: Preliminary dose-response study on beet armyworm; type: in vivo, Spodoptera exigua; conditions: beet armyworm adults; estimated from the dose-response curve (12.5, 25, 50 and 100 ppm)
Source text: as §2
Sub-lethal concentrations of Compound 1 on beet armyworm were defined based on a preliminary study using rates of 12.5, 25, 50 and 100 ppm.

cotton bollworm = assay: Preliminary dose-response curve on cotton bollworm; type: in vivo, Helicoverpa armigera; conditions: cotton bollworm adults; preliminary dose-response curve at 10, 25, 50, 80 and 100 ppm
Source text: as §2, §1

Q: How did the “number of eggs hatched as compared to controls” value ([1]; 10, 20 and 30 ppm) turn out when CNC(=O)c1cc(Cl)cc(C)c1NC(=O)c1cc(Br)nn1-c1ncccc1Cl [Compound 1, 3-bromo-N-[4-chloro-2-methyl-6-[(methylamino)carbonyl]phenyl]-1-(3-chloro-2-pyridinyl)-1H-pyrazole-5-carboxamide] was run?
A: Its value is “progressively substantially decrease the number of eggs hatched”.

Q: What about the “number of eggs laid as compared to controls” value ([1]; 10, 20 and 30 ppm) of the same molecule?
A: Its value is “did not consistently reduce the number of eggs laid”.

Q: What about the “No. of eggs hatched” value ([1]; 10 ppm) of the same molecule?
A: The value was 977.

Q: And the “No. of eggs laid” value ([1]; 10 ppm)?
A: The value was 3412.

Q: And the “No. of eggs hatched” value ([1]; 20 ppm)?
A: Its value is 778.

Q: What about the “No. of eggs laid” value ([1]; 20 ppm) of the same molecule?
A: The value was 1180.

Q: And the “No. of eggs hatched” value ([1]; 30 ppm)?
A: Its value is 84.

Q: And the “No. of eggs laid” value ([1]; 30 ppm)?
A: Its value is 4920.

Q: What about the mortality at 10 ppm (diamondback moth) of the same molecule?
A: The mortality at 10 ppm was roughly 20%.

Q: And the “No. of eggs per female moth” value ([2]; 1 DAT)?
A: Its value is 0.

Q: What about the “No. of eggs per female moth” value ([2]; 2 DAT) of the same molecule?
A: The value was 2.2.

Q: And the LC20 (beet armyworm)?
A: The LC20 was 12.5 ppm.

Q: What about the LC50 (beet armyworm) of the same molecule?
A: Its LC50 is 20 ppm.

Q: And the LC80 (beet armyworm)?
A: Its LC80 is 31 ppm.

Q: And the LC20 (cotton bollworm)?
A: The LC20 was 18 ppm.

Q: What about the LC50 (cotton bollworm) of the same molecule?
A: Its LC50 is 33 ppm.
